We go through 34 compounds from ChEMBL document CHEMBL3217621, “Diaryl ether derivatives as anticancer agents a review” (Medchemcomm, 2012).

A short description of series [1]: Inhibition of GGPTase-1 (unknown origin). Set-up: species or system Homo sapiens.
The test system of series [2] is HUVEC. Kind of series: Antiproliferative activity against bFGF-treated HUVEC. Type of series: functional, cell-based. The note with it: Homo sapiens.
Series [3] is described as follows: Selectivity index, ratio of IC50 for human KB3-1 cells to IC50 for bFGF-treated HUVEC. Set-up: species or system KB 3-1.
Series [4] is described as follows: Cytotoxicity against human RPE1 cells assessed as cell viability after 24 to 72 hrs by MTT assay. Type of series: cell-based, TERT-RPE1. Particulars: RPE-1. For orientation: Formazan colour is commonly taken as a measure of viable cells.
Series [5] concerns PC-3. The series is described as follows: Induction of apoptosis in human PC3 cells at 10 uM after 24 hrs by propidium iodide/Hochest33342 staining-based flow cytometry (reference value: 0.05%). Type of series: functional. (In general: Flow cytometry measures light scatter and fluorescence of single cells or particles in a stream.)
Series [6] has as its system PC-3. The series is described as follows: Cytotoxicity against human PC3 cells assessed as growth inhibition after 48 hrs by MTT assay. The class given is functional, cell-based. The note with it: PC-3, 48 h.
For series [7], the target named is T1, Interstitial collagenase (Homo sapiens, UniProt P03956).
T1 sequence (P03956 whole entry): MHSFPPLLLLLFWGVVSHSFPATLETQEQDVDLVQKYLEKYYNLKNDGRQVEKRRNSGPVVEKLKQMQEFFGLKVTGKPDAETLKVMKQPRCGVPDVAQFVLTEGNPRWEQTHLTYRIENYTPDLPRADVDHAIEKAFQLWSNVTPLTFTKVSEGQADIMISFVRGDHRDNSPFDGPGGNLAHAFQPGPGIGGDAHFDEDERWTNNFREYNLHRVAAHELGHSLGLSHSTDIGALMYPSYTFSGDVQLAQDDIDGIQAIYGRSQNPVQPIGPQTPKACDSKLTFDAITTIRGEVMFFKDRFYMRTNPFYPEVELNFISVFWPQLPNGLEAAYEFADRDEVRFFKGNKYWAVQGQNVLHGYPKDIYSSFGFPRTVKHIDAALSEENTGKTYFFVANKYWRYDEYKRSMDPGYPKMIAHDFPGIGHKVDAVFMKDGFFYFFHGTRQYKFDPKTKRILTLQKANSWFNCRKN
Kind of series: Inhibition of MMP-1 (unknown origin).

The target of series [8] is Matrix metalloproteinase-9 (Homo sapiens, UniProt P14780). The series is described as follows: Inhibition of MMP-9 (unknown origin).
Series [9] can be described thus: AUC in cynomolgus monkey at 3 mg/kg, po. Particulars: plasma. The class given is ADME, organism-based, Macaca fascicularis. On the set-up: dose 3 mg/kg, route oral.
The target of series [10] is 72 kDa type IV collagenase (Homo sapiens, UniProt P08253). Kind of series: Inhibition of MMP-2 (unknown origin).
Series [11] is described as follows: Half life in cynomolgus monkey at 3 mg/kg, iv. Type of series: ADME, organism-based, Macaca fascicularis. Set-up: dose 3 mg/kg, route intravenous. Particulars: in vivo.
Series [12] relates to P388. Kind of series: Cytotoxicity against mouse P388 cells assessed as growth inhibition after 5 days by MTT assay. The class given is functional, cell-based. The note with it: P388, 120 h.
The nature of series [13]: Cytotoxicity against human MOLT3 cells. The class given is functional, cell-based. The note with it: MOLT-3.
The test system of series [14] is HL-60. Kind of series: Cytotoxicity against human HL60 cells. Type of series: functional, cell-based.
Series [15] has as its target T2, Aromatase (Homo sapiens, UniProt P11511).
T2 sequence (P11511 whole entry): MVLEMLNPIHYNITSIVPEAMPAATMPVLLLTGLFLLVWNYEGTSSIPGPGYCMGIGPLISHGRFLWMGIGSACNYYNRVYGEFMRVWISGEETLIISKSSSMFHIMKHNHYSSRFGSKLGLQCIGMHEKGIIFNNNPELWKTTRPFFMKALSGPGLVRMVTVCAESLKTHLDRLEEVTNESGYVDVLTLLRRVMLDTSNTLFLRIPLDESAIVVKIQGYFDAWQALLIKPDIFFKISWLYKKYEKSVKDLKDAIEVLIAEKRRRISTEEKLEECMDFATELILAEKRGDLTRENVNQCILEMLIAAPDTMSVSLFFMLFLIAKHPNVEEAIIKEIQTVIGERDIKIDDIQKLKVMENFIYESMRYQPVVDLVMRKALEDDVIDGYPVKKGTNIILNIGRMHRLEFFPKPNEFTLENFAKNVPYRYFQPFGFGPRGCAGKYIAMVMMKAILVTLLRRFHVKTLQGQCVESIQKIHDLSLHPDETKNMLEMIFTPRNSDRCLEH
The series is described as follows: Inhibition of aromatase (unknown origin).

Matrix metalloproteinase-9, sequence (P14780 whole entry): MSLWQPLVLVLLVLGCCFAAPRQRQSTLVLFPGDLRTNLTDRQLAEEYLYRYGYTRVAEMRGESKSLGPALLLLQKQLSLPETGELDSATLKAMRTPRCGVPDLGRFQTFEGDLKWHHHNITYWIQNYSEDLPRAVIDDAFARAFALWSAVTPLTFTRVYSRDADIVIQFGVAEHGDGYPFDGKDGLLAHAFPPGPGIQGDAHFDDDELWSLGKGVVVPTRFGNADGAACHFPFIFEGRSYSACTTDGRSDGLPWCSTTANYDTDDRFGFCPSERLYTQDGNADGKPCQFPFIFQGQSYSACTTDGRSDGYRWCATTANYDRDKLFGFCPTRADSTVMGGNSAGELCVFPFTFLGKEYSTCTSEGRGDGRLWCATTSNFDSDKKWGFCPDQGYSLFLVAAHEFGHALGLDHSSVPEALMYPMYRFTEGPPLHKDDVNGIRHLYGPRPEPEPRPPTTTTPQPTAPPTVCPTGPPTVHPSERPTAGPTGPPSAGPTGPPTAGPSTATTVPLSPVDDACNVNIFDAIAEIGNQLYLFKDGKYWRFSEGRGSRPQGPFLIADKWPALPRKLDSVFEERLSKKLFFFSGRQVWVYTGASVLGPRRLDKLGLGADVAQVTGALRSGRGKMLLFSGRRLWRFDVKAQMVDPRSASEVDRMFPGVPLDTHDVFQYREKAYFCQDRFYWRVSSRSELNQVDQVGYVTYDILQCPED
72 kDa type IV collagenase, sequence (P08253 whole entry): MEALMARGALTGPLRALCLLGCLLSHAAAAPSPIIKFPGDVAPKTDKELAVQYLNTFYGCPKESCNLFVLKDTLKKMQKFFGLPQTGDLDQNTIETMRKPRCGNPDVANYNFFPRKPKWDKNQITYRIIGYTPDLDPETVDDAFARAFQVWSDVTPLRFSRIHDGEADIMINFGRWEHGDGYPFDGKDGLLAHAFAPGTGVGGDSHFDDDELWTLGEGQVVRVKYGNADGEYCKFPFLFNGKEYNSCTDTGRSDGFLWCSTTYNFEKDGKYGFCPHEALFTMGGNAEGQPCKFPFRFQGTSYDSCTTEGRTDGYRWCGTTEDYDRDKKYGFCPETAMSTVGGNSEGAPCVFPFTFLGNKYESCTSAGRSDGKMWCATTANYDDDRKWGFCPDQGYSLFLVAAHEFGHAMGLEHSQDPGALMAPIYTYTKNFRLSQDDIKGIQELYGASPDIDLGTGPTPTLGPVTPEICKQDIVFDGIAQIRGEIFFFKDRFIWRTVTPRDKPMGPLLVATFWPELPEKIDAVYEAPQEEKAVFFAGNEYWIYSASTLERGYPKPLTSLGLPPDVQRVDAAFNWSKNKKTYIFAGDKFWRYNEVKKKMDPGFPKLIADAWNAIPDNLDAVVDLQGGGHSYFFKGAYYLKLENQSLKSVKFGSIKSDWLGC

In series [1], `CCC1(c2cccc(Oc3cc(Cc4cncn4C)ccc3C#N)c2)CCCCN(C)C1=O` (racemic) yielded a half-inhibitory concentration (IC50) of 10 nM.

`O=C1CCc2cc(Br)c(c(Br)c2)Oc2cc(ccc2O)CCC(=O)NCCc2cc(Br)c(c(Br)c2)Oc2cc(cc(Br)c2O)CCN1` gave a half-maximal inhibitory concentration (IC50) in series [2] of 4000 nM. The “Ratio IC50” value in [3] was 1.6.

For `COc1ccc2cc1Oc1ccc(cc1)CCc1ccc(c(O)c1)Oc1cccc(c1)CC2`, the values for the IC50 in series [4] and in series [6] were 50000 nM and 7980 nM, respectively. This compound also showed an Activity in series [5] of 9.4%.

In the case of `O=C1N/C=C/c2ccc(c(Br)c2)Oc2cc(ccc2O)CCNC(=O)/C(=N/O)Cc2cc(Br)c(c(Br)c2)Oc2cc(cc(Br)c2O)C/C1=N\O` [BASTADIN 11], half-maximal inhibition in [2] (IC50) was put at 53 nM. Further, in [3], the “Ratio IC50” value is 38.

Take `O=CN(O)C(CS(=O)(=O)c1ccc(Oc2ccc(OC(F)(F)F)cc2)cc1)C1CCC2(CC1)OCCO2` (stereo unspecified): the IC50 in [7] was more than 50000 nM.

As to `CC[C@@]1(c2cccc(Oc3cc([C@](C)(N)c4cncn4C)ccc3C#N)c2)CCCCN(C)C1=O`, in series [1], inhibition was half-maximal at 3.6 nM (IC50).

With `O=CN(O)C(CS(=O)(=O)c1ccc(Oc2ccc(OC(F)(F)F)cc2)cc1)[C@H]1CCCO1` (stereo partly specified), the half-inhibitory concentration (IC50) in series [7] was more than 50000 nM; in series [8], 0.32 nM; in [10] it was 0.61 nM. Besides, the exposure (AUC) in series [9] is 26 µM·h.

For the compound `N#Cc1ccc(Cn2ccnc2)cc1Oc1ccc(Cl)cc1Cl`, the half-maximal inhibitory concentration (IC50) in [1] is 280 nM.

In series [2], `O=C1NCCc2cc(Br)c(O)c(c2)Oc2c(Br)cc(cc2Br)CCNC(=O)/C(=N/O)Cc2cc(Br)c(O)c(c2)Oc2c(Br)cc(cc2Br)C/C1=N\O` [BASTADIN 6] returned an IC50 of 52 nM. Also, the “Ratio IC50” value in [3] worked out at 41.

The compound `CCC1(c2cccc(Oc3cc(Cn4ccnc4)ccc3C#N)c2)CCCCN(C)C1=O` (racemic) had an IC50 in [1] of 7.1 nM.

On to `CC1(C)OC[C@H]([C@@H](CS(=O)(=O)c2ccc(Oc3ccc(OC(F)(F)F)cc3)cc2)N(O)C=O)O1`, for which the half-life in [11] was 16.8 h. Also, the AUC in series [9] was 53 µM·h.

As for `COc1ccc(/C=C\c2cc(OC)c(OC)c(OC)c2)cc1O` [COMBRETASTATIN A4], the IC50 in series [12] is 2.6 nM.

As to `O=CN(O)C(COCCO)CS(=O)(=O)c1ccc(Oc2ccc(OC(F)(F)F)cc2)cc1` (stereo unspecified), the half-life in [11] was 1.91 h.

`O=C1NCCc2ccc(c(Br)c2)Oc2cc(ccc2O)CCNC(=O)/C(=N/O)Cc2cc(Br)c(O)c(c2)Oc2c(Br)cc(cc2Br)C/C1=N\O` [BASTADIN 13] yielded an IC50 in [2] of 520 nM. The “Ratio IC50” value in series [3] was 14.

`N[C@@H]1Cc2cc(Br)c(c(Br)c2)Oc2cc(ccc2O)C[C@H](N)C(=O)NCCc2cc(Br)c(c(Br)c2)Oc2cc(cc(Br)c2O)CCNC1=O`: in series [2], the IC50 was 610 nM. Also, the “Ratio IC50” value in [3] was 26.2.

Compound `COc1cccc(Oc2cc(Cn3ccnc3)ccc2C#N)c1OC` returned an IC50 in [1] of 15000 nM.

`CCC1(c2cccc(Oc3cc(C(C)(N)c4cncn4C)ccc3C#N)c2)CCCCN(C)C1=O` (mixture of isomers): in [1], the midpoint of inhibition, the IC50, lay at 5.1 nM.

As for `O=CN(O)C(CS(=O)(=O)c1ccc(Oc2ccc(OC(F)(F)F)cc2)cc1)[C@H](O)CO` (stereo partly specified), the half-life in [11] is 1 h. In [9], this compound gave an AUC of 3 µM·h.

Compound `O=C1NCCc2ccc(c(Br)c2)Oc2cc(cc(Br)c2O)CCNC(=O)/C(=N/O)Cc2cc(Br)c(O)c(c2)Oc2c(Br)cc(cc2Br)C/C1=N\O` [BASTADIN 19] yielded a concentration for half-maximal inhibition (IC50) in series [2] of 120 nM. Further, in series [3], the “Ratio IC50” value is on record as 19.

In series [2], `O=C1N/C=C/c2ccc(c(Br)c2)Oc2cc(cc(Br)c2O)CCNC(=O)/C(=N/O)Cc2ccc(c(Br)c2)Oc2cc(cc(Br)c2O)C/C1=N\O` [BASTADIN 7] yielded a 50% inhibitory concentration (IC50) of 54 nM. Moreover, in [3], the “Ratio IC50” value turned out to be 56.

`N#Cc1ccc(Cn2ccnc2)cc1Oc1ccccc1` had an IC50 in [1] of 3700 nM.

Take `Oc1ccc2c(c1)CCc1ccc(cc1)Oc1cc(ccc1O)CCc1ccc-2c(O)c1` [RICCARDI C]: the IC50 in series [4] came out at 50000 nM; in series [6] it was 3220 nM. In series [5], this compound yielded an Activity of 6.21%.

Turning to `COc1ccc(O)c2c1Oc1cccc(c1)CCc1ccc(O)c(c1)Oc1ccc(cc1)CC2`, the values for the IC50 in series [4] and in [6] were 50000 nM and 5450 nM, respectively. This compound also had an Activity in series [5] of 51.62%.

Regarding `COc1cc(C)cc(Oc2c(C)cc(OC)cc2OC)c1`, the IC50 is 1400 nM in series [13] and 2200 nM in series [14].

In series [2], `O=C1NCCc2cc(Br)c(O)c(c2)Oc2ccc(cc2Br)CCNC(=O)/C(=N\O)Cc2cc(Br)c(O)c(c2)Oc2c(Br)cc(cc2Br)C/C1=N/O` [BASTADIN 5] registered an IC50 of 62 nM. For the same compound, the “Ratio IC50” value in [3] was found to be 76.

Regarding `Nc1cc2cc(c1O)Oc1c(Br)cc(cc1Br)CCNC(=O)/C(=N/O)Cc1cc(N)c(O)c(c1)Oc1c(Br)cc(cc1Br)C/C(=N/O)C(=O)NCC2`, in series [2], the IC50 was found to be 960 nM. For the same compound, in series [3], the “Ratio IC50” value is given as 3.4.

Consider `O=CN(O)C(Cc1ccc(C(=O)O)cc1)CS(=O)(=O)c1ccc(Oc2ccc(OC(F)(F)F)cc2)cc1` (stereo unspecified), for which the IC50 is more than 50000 nM in series [7], 0.53 nM in [8] and 0.53 nM in [10]. In addition, the exposure (AUC) in [9] is 16 µM·h.

Regarding `CC1(C)OC[C@H](CC(CS(=O)(=O)c2ccc(Oc3ccc(OC(F)(F)F)cc3)cc2)N(O)C=O)O1` (stereo partly specified), the IC50 in series [7] was more than 50000 nM; in series [8] it was 5.5 nM; in series [10], 1.5 nM. The compound further came in with an AUC in [9] of 2 µM·h.

Regarding `Cc1cc(O)cc2c1Oc1cc(O)cc(C)c1C(=O)O2`, the 50% inhibitory concentration (IC50) in series [15] came out at 5300 nM.

Consider `C[C@@H]1OC(C)(C)O[C@H]1C(CS(=O)(=O)c1ccc(Oc2ccc(OC(F)(F)F)cc2)cc1)N(O)C=O` (stereo partly specified), for which the IC50 is more than 50000 nM in [7] and 1.9 nM in series [10]. Besides, the half-life in [11] is 19.5 h. The AUC in series [9] is 21 µM·h.

`CCC1(c2cccc(Oc3cc(C(N)c4cncn4C)ccc3C#N)c2)CCCCN(C)C1=O` (stereo unspecified) yielded an IC50 in series [1] of 8 nM.

Compound `O=C1N/C=C/c2ccc(c(Br)c2)Oc2cc(cc(Br)c2O)CCNC(=O)/C(=N/O)Cc2cc(Br)c(c(Br)c2)Oc2cc(cc(Br)c2O)C/C1=N\O` [BASTADIN 4] displayed an IC50 in series [2] of 53 nM. Besides, the “Ratio IC50” value in [3] stood at 38.

Compound `CC[C@@]1(c2cccc(Oc3cc(Cn4ccnc4)ccc3C#N)c2)CCCCN(C)C1=O` showed an IC50 in series [1] of 5.8 nM.

Take `COc1cc([C@@H]2c3cc4c(cc3[C@@H](O[C@@H]3O[C@@H]5CO[C@@H](C)O[C@H]5[C@H](O)[C@H]3O)[C@H]3COC(=O)[C@H]23)OCO4)cc(OC)c1O` [ETOPOSIDE]: the IC50 was 20 nM in series [13] and 610 nM in [14].

One may read the IC50 as the point on the concentration scale where inhibition reaches its midpoint. As a reminder, the AUC is concentration integrated over time. A word on the half-life: it is how long it takes for the measured level to halve.
